# Compound: CC[C@@H](C(=O)[C@@H](C)[C@@H](O)[C@H](C)[C@@H]1O[C@@H]([C@@H](CC)C(=O)O)CC[C@@H]1C)[C@H]1O[C@]2(C=C[C@@H](O)[C@]3(CC[C@@](C)([C@H]4CC[C@](O)(CC)[C@H](C)O4)O3)O2)[C@H](C)C[C@@H]1C [SALINOMYCIN]
# Assay: area under dose-response curve of surviving fraction (unscaled, Aref=0) (surviving fraction x log10(nM)); higher = more resistant
# Settings: exposure time: 5 days; dose range 0.5-1000 nM
# In short: (§1)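 Tumour cell lines in 384-well plates were exposed to eight inhibitor concentrations, from 0.5 to 1000 nM, for five days, and viability was read by CellTiter-Glo luminescence in three screens per line. Signals were normalised to DMSO-only wells, and 3-parameter logistic regression in the drc R package fitted dose-response survival curves to the surviving fractions. Area under the curve is given as the unscaled activity area. That area is taken over log10 dose with Aref = 0.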
row,Test System,area under dose-response curve
1,SUM149.B1*.S BREAST,2.9
2,93VU HEADNECK,2.79
3,143B BONE,3.23
4,SUM159 BREAST,2.31
5,ASKA SYNOVIAL,3.15
6,CME SYNOVIAL,2.88
7,VCAP PROSTATE,2.89
8,YAMATO SYNOVIAL,2.25
9,HCC202 BREAST,2.48
10,SG27 HEADNECK,2.95
11,VP229 BREAST,2.4
12,ZR751 BREAST,2.67
13,SIHA CERVIX,2.93
14,BT549 BREAST,2.75
15,NCIH441 LUNG,3.12
16,HCT15 LARGE INTESTINE,2.74
17,MDAMB453 BREAST,3.04
18,MDAMB468 BREAST,3.08

# Compound: COc1cccc2c1C(=O)c1c(O)c3c(c(O)c1C2=O)C[C@@](O)(C(=O)CO)C[C@@H]3O[C@H]1C[C@H](N)[C@H](O)[C@H](C)O1 [DOXORUBICIN]
# Assay: as above
# Settings: exposure time: 5 days; dose range 0.5-1000 nM
# In short: as §1
row,Test System,area under dose-response curve
1,SCC36 HEADNECK,1.98
2,OS25HAL BONE,1.87
3,SG43 HEADNECK,1.71
4,U2OS BONE,1.98
5,SUM44 BREAST,2.59
6,RDES SOFT TISSUE,1.97
7,MDAMB157 BREAST,1.21
8,CHLA90 AUTONOMIC GANGLIA,1.8
9,CADOES1 SOFT TISSUE,1.99
10,SG31 HEADNECK,2.02
11,SCC47 HEADNECK,2.27
12,S68 BREAST,1.32
13,SNU475 LIVER,2.22
14,22RV1 PROSTATE,1.31
15,SG32 HEADNECK,1.68
16,SCC003 HEADNECK,2.03
17,JURKAT HAEMATOPOIETIC AND LYMPHOID TISSUE,1.12
18,HT1080 SOFT TISSUE,1.29
19,LNCAP PROSTATE,1.09
20,OSHN BONE,1.98
21,SG28 HEADNECK,2.4
22,HUO3N1 BONE,2
23,BT20 BREAST,1.48

row,Test System,area under dose-response curve
1,SJSA1 BONE,1.9
2,HCC78 LUNG,1.2
3,NY BONE,1.85
4,NOS1 BONE,2.15
5,SUM149.B1*.S BREAST,2
6,93VU HEADNECK,2.39
7,143B BONE,2.11
8,SUM159 BREAST,1.84
9,ASKA SYNOVIAL,0.989
10,CME SYNOVIAL,1.52
11,VCAP PROSTATE,2.3
12,YAMATO SYNOVIAL,2.03
13,HCC202 BREAST,2.27
14,SG27 HEADNECK,2.61
15,VP229 BREAST,2.61
16,ZR751 BREAST,2.06
17,SIHA CERVIX,2.16
18,BT549 BREAST,1.41
19,NCIH441 LUNG,2.15
20,HCT15 LARGE INTESTINE,2.07
21,MDAMB453 BREAST,2.24
22,MDAMB468 BREAST,2.09

# Compound: CS(=O)(=O)c1ccc(C(=O)Nc2ccc(Cl)c(-c3ccccn3)c2)c(Cl)c1 [VISMODEGIB]
# Assay: as above
# Settings: exposure time: 5 days; dose range 0.5-1000 nM
# In short: as §1
row,Test System,area under dose-response curve
1,SCC36 HEADNECK,2.89
2,OS25HAL BONE,3.29
3,U2OS BONE,3.48
4,SUM44 BREAST,3.11
5,MDAMB157 BREAST,3.26
6,CHLA90 AUTONOMIC GANGLIA,3.12
7,CADOES1 SOFT TISSUE,3.17
8,SG31 HEADNECK,3.05
9,SCC47 HEADNECK,3.19
10,S68 BREAST,3.02
11,SNU475 LIVER,3.06
12,22RV1 PROSTATE,3.35
13,SCC003 HEADNECK,3.24
14,HT1080 SOFT TISSUE,3.25
15,OSHN BONE,3.27
16,SG28 HEADNECK,3
17,BT20 BREAST,3.18

row,Test System,area under dose-response curve
1,SJSA1 BONE,3.35
2,HCC78 LUNG,3.52
3,NY BONE,3.28
4,143B BONE,3.22
5,ASKA SYNOVIAL,3.21
6,CME SYNOVIAL,3.77
7,VCAP PROSTATE,3.36
8,HCC202 BREAST,3.06
9,SG27 HEADNECK,3.18
10,VP229 BREAST,3.65
11,ZR751 BREAST,2.87
12,BT549 BREAST,2.93
13,NCIH441 LUNG,3.27
14,HCT15 LARGE INTESTINE,3.26
15,MDAMB453 BREAST,3.16
16,MDAMB468 BREAST,3.19

# Compound: CN(C)CC[C@H](CSc1ccccc1)Nc1ccc(S(=O)(=O)NC(=O)c2ccc(N3CCN(Cc4ccccc4-c4ccc(Cl)cc4)CC3)cc2)cc1[N+](=O)[O-] [ABT-737]
# Assay: as above
# Settings: exposure time: 5 days; dose range 0.5-1000 nM
# In short: as §1
row,Test System,area under dose-response curve
1,SCC36 HEADNECK,3.58
2,OS25HAL BONE,3.39
3,SG43 HEADNECK,2.77
4,U2OS BONE,3.49
5,RDES SOFT TISSUE,2.58
6,MDAMB157 BREAST,3.26
7,CHLA90 AUTONOMIC GANGLIA,3.26
8,CADOES1 SOFT TISSUE,2.63
9,SG31 HEADNECK,3.88
10,SCC47 HEADNECK,3.89
11,S68 BREAST,3.67
12,SNU475 LIVER,3.39
13,SG32 HEADNECK,3.48
14,SCC003 HEADNECK,3.76
15,JURKAT HAEMATOPOIETIC AND LYMPHOID TISSUE,3.08
16,LNCAP PROSTATE,3.07
17,OSHN BONE,3.58
18,SJSA1 BONE,5.63
19,NY BONE,3.42
20,NOS1 BONE,3.75
21,SUM149.B1*.S BREAST,3.79
22,CME SYNOVIAL,4.41
23,VCAP PROSTATE,3.49
24,YAMATO SYNOVIAL,4.34
25,VP229 BREAST,3.82
26,ZR751 BREAST,3.53
27,SIHA CERVIX,3.73
28,HCT15 LARGE INTESTINE,3.46
29,MDAMB453 BREAST,3.59
30,MDAMB468 BREAST,3.62

# Compound: CN1CC[C@H](c2c(O)cc(O)c3c(=O)cc(-c4ccccc4Cl)oc23)[C@H](O)C1 [FLAVOPIRIDOL]
# Assay: as above
# Settings: exposure time: 5 days; dose range 0.5-1000 nM
# In short: as §1
row,Test System,area under dose-response curve
1,SCC36 HEADNECK,2.3
2,OS25HAL BONE,2.25
3,SG43 HEADNECK,2.35
4,U2OS BONE,2.2
5,SUM44 BREAST,2.36
6,RDES SOFT TISSUE,2.51
7,MDAMB157 BREAST,2.21
8,CHLA90 AUTONOMIC GANGLIA,2.36
9,CADOES1 SOFT TISSUE,1.8
10,SG31 HEADNECK,2.03
11,SCC47 HEADNECK,2.12
12,S68 BREAST,2.32
13,SNU475 LIVER,2.33
14,22RV1 PROSTATE,2.35
15,SG32 HEADNECK,1.72
16,SCC003 HEADNECK,2.22
17,JURKAT HAEMATOPOIETIC AND LYMPHOID TISSUE,2.12
18,HT1080 SOFT TISSUE,2.07
19,LNCAP PROSTATE,1.78
20,OSHN BONE,2.31
21,HUO3N1 BONE,2.49

row,Test System,area under dose-response curve
1,BT20 BREAST,2.22
2,SJSA1 BONE,2.96
3,HCC78 LUNG,1.62
4,NY BONE,2.12
5,NOS1 BONE,2.06
6,SUM149.B1*.S BREAST,2.37
7,93VU HEADNECK,2.13
8,SUM159 BREAST,2.38
9,ASKA SYNOVIAL,2.27
10,CME SYNOVIAL,2.35
11,VCAP PROSTATE,2.26
12,YAMATO SYNOVIAL,2.38
13,SG27 HEADNECK,2.29
14,VP229 BREAST,2.08
15,ZR751 BREAST,2.38
16,SIHA CERVIX,2.19
17,BT549 BREAST,2.02
18,NCIH441 LUNG,2.48
19,HCT15 LARGE INTESTINE,2.01
20,MDAMB453 BREAST,2.12
21,MDAMB468 BREAST,2.15

# Compound: CCN(CC)CCCCNc1ncc2cc(-c3cc(OC)cc(OC)c3)c(NC(=O)NC(C)(C)C)nc2n1
# Assay: as above
# Settings: exposure time: 5 days; dose range 0.5-1000 nM
# In short: as §1
row,Test System,area under dose-response curve
1,OS25HAL BONE,3.27
2,SG43 HEADNECK,3.03
3,U2OS BONE,3
4,SUM44 BREAST,3.27
5,RDES SOFT TISSUE,3.98
6,MDAMB157 BREAST,2.73
7,CHLA90 AUTONOMIC GANGLIA,2.92
8,CADOES1 SOFT TISSUE,3.03
9,SG31 HEADNECK,3.09
10,SCC47 HEADNECK,3.33
11,S68 BREAST,3.23
12,SNU475 LIVER,3.01
13,22RV1 PROSTATE,3.33
14,SG32 HEADNECK,3.36
15,SCC003 HEADNECK,3.36
16,JURKAT HAEMATOPOIETIC AND LYMPHOID TISSUE,3.44
17,HT1080 SOFT TISSUE,3.39
18,LNCAP PROSTATE,2.96
19,OSHN BONE,3.35
20,SG28 HEADNECK,3.28

row,Test System,area under dose-response curve
1,HUO3N1 BONE,3.05
2,BT20 BREAST,3.96
3,SJSA1 BONE,3.48
4,HCC78 LUNG,3.12
5,NY BONE,2.65
6,NOS1 BONE,3.02
7,143B BONE,3.04
8,SUM159 BREAST,3.75
9,CME SYNOVIAL,3.88
10,VCAP PROSTATE,3.48
11,YAMATO SYNOVIAL,3.96
12,HCC202 BREAST,4.1
13,SG27 HEADNECK,3.03
14,VP229 BREAST,3.78
15,ZR751 BREAST,3.3
16,SIHA CERVIX,3.08
17,NCIH441 LUNG,3.37
18,HCT15 LARGE INTESTINE,3.28
19,MDAMB453 BREAST,3.28
20,MDAMB468 BREAST,3.27

# Compound: CS(=O)(=O)CCNCc1ccc(-c2ccc3ncnc(Nc4ccc(OCc5cccc(F)c5)c(Cl)c4)c3c2)o1 [LAPATINIB]
# Assay: as above
# Settings: exposure time: 5 days; dose range 0.5-1000 nM
# In short: as §1
row,Test System,area under dose-response curve
1,SCC36 HEADNECK,2.91
2,OS25HAL BONE,3.47
3,SG43 HEADNECK,2.24
4,SUM44 BREAST,3.72
5,RDES SOFT TISSUE,4.08
6,MDAMB157 BREAST,3.27
7,22RV1 PROSTATE,3.42
8,SG32 HEADNECK,3.6
9,SCC003 HEADNECK,3.11
10,JURKAT HAEMATOPOIETIC AND LYMPHOID TISSUE,3.21
11,HT1080 SOFT TISSUE,3.4
12,LNCAP PROSTATE,3.12
13,OSHN BONE,3.55
14,HUO3N1 BONE,3.26
15,BT20 BREAST,3.84
16,SJSA1 BONE,5.27

row,Test System,area under dose-response curve
1,HCC78 LUNG,2.99
2,NY BONE,3.43
3,NOS1 BONE,3.54
4,93VU HEADNECK,2.8
5,SUM159 BREAST,3.55
6,ASKA SYNOVIAL,3.82
7,CME SYNOVIAL,4.25
8,VCAP PROSTATE,3.07
9,YAMATO SYNOVIAL,4.08
10,VP229 BREAST,3.02
11,ZR751 BREAST,2.92
12,SIHA CERVIX,3.53
13,BT549 BREAST,3.45
14,NCIH441 LUNG,3.58
15,MDAMB453 BREAST,3.21
